Drawing on patent US8435984B2, “Tertiary amine substituted peptides useful as inhibitors of HCV replication” (Achillion Pharmaceuticals, Inc., priority 2007, dated 2013), this text covers EC50 for 14 compounds.

A value given as a limit tells only on which side of the number the result lay.

For this test, the system named is HCV replicon. Kind of test: HCV replicon replication assay (NPT ELISA) in Huh-7 replicon-containing cells. The test is classed as cell-based, Hepatitis C virus. To be noted: Hepatitis C virus, 72 h; inhibition of HCV replicon replication, Huh-7 HCV replicon-containing cells, three days. The protocol:
Compounds claimed herein are tested for the ability to inhibit viral replication of the Hepatitis C replicon in cultured cells in which the HCV replicon construct has been incorporated. The HCV replicon system was described by Bartenschlager, et. al (Science, 285, pp. 110-113 (1999)). The replicon system is predictive of in vivo anti-HCV activity; compounds that are active in humans uniformly evidence activity in the replicon assay.
In this assay HCV replicon containing cells are treated with different concentrations of the test compound to ascertain the ability of the test compound to suppress replication of the HCV replicon. As a positive control, HCV replicon-containing cells are treated with different concentrations of interferon alpha, a known inhibitor of HCV replication. The replicon assay system includes Neomycin Phosphotransferase (NPT) as a component of the replicon itself in order to detect the transcription of replicon gene products in the host cell. Cells in which the HCV replicon is actively replicating have high levels of NPT; the level of NPT is proportional to HCV replication. […] The NPT level of each sample is measured using a captured ELISA.
The HCV replicon contains, 5′-3′, the HCV-IRES, the neomycin phosphotransferase (neo) gene, the IRES of encephalomyocarditis virus, which directs translation of HCV sequences NS3 to NS5B, and the 3′-NTR. The sequence of the HCV replicon has been deposited in GenBank (Accession no. AJ242652).
The replicon is transfected into Huh-7 cells using standard methods such as electroporation.
HCV replicon-containing cells are rinsed with once PBS once; 2 mls of trypsin are then added. Cells are incubated at 37° C. in a 5% CO2 incubator for 3-5 minutes. 10 mls of complete medium is added to stop the reaction. Cells are blown gently, put into a 15 ml tube, and spun at 1200 rpm for four minutes. The trypsin/medium solution is removed and 5 mls of medium (500 ml DMEM (high glucose)) from BRL catalog #12430-054; 50 mls 10% FBS, 5% Geneticin G418 (50 mg/ml, BRL catalog #10131-035), 5 ml MEM non-essential amino acids (100×BRL #11140-050) and 5 ml pen-strep (BRL #15140-148) is added. The cells and media are mixed carefully
Cells are plated with screening medium (500 ml DMEM (BRL #21063-029), 50 ml FBS (BRL #10082-147) and 5 ml MEM non-essential amino acid (BRL #11140-050) at 6000-7500 cells/100 μl/well of 96 well plate (6-7.5×10^5 cells/10 ml/plate). Plates are placed into 37° C. 5% CO2 incubator overnight. 6D. Assay
The following morning, drugs (test compounds or interferon alpha) are diluted in 96 well U bottom plates with media or DMSO/media, depending on the final concentration chosen for screening. Generally for 6 concentrations of each test compounds ranging from 10 micromolar to 0.03 micromolar are applied. 100 μl of the test compound dilution is placed in wells of the 96 well plate containing the HCV replicon cells. Media without drug is added to some wells as a negative controls. DMSO is known to affect cell growth. Therefore, if drugs diluted in DMSO are used, all wells, including negative control (media only) and positive control (interferon alpha) wells, must contain the same concentration of DMSO, for single dose screening. The plates are incubated at 37° C. in a humidified 5% CO2 environment for three days.
On day four, the NTPII assay is quantitated. The medium is poured from the plates and the plates are washed once in 200 μl of PBS. The PBS is then decanted and the plates tapped in a paper towel to remove any remaining PBS. Cells are fixed in situ with 100 id/well of pre-cooled (−20° C.) methanol:acetone (1:1) and the plates are placed at −20° C. for 30 minutes.
The fixing solution is poured from the plates and the plates allowed to air-dry completely (approximately one hour). The appearance of the dried cell layer is recorded and the density of the cells in the toxic wells is scored with the naked eye. […]
On to `C=CC1CC1(NC(=O)[C@@H]1C[C@@H](Oc2cc(-c3ccccc3)nc3cc(OC)ccc23)CN1C(=O)[C@H](c1ccccc1)N1CCCCC1)C(=O)O` (stereo partly drawn) [Compound 56, 1-((2S,4R)-4-(7-methoxy-2-phenylquinolin-4-yloxy)-1-((S)-2-phenyl-2-(piperidin-1-yl)acetyl)pyrrolidine-2-carboxamido)-2-vinylcyclopropanecarboxylic acid], for which the EC50 was above 100 µM. The result for `C=CC1CC1(NC(=O)[C@@H]1C[C@@H](Oc2cc(-c3ccccc3)nc3cc(OC)ccc23)CN1C(=O)[C@H](C(C)C)N1CCCCC1)C(=O)O` (stereo partly drawn) [Compound 57, 1-((2S,4R)-4-(7-methoxy-2-phenylquinolin-4-yloxy)-1-((S)-3-methyl-2-(piperidin-1-yl)butanoyl)pyrrolidine-2-carboxamido)-2-vinylcyclopropanecarboxylic acid] reads below 100 µM; that for `C=CC1CC1(NC(=O)[C@@H]1C[C@@H](Oc2cc(-c3ccccc3)nc3cc(OC)ccc23)CN1C(=O)[C@H](C1CCCCC1)N1CCCCC1)C(=O)O` (stereo partly drawn) [Compound 58, 1-((2S,4R)-1-((S)-2-cyclohexyl-2-(piperidin-1-yl)acetyl)-4-(7-methoxy-2-phenylquinolin-4-yloxy)pyrrolidine-2-carboxamido)-2-vinylcyclopropanecarboxylic acid], below 100 µM. Consider `C=CC1CC1(NC(=O)[C@@H]1C[C@@H](Oc2cc(-c3ccccc3)nc3cc(OC)ccc23)CN1C(=O)[C@H](C)N1CCCCC1)C(=O)O` (stereo partly drawn) [Compound 59, 1-((2S,4R)-4-(7-methoxy-2-phenylquinolin-4-yloxy)-1-((S)-2-(piperidin-1-yl)propanoyl)pyrrolidine-2-carboxamido)-2-vinylcyclopropanecarboxylic acid], for which the EC50 is above 100 µM. `CCOC(=O)C12CC1/C=C\CCCCC[C@H](N1CCCCC1)C(=O)N1C[C@H](Oc3cc(-c4ccccc4)nc4cc(OC)ccc34)C[C@H]1C(=O)N2` (stereo partly drawn) [Compound 60, (2R,6S,16aS,Z)-ethyl 2-(7-methoxy-2-phenylquinolin-4-yloxy)-5,16-dioxo-6-(piperidin-1-yl)-1,2,3,5,6,7,8,9,10,11,13a,14,14a, 15,16,16a-hexadecahydrocyclopropa [e]pyrrolo[1,2-a] [1,4]diazacyclopentadecine-14a-carboxylatc] showed an EC50 below 100 µM. Consider `COc1ccc2c(O[C@@H]3C[C@H]4C(=O)NC5(C(=O)O)CC5/C=C\CCCCC[C@H](N5CCCCC5)C(=O)N4C3)cc(-c3ccccc3)nc2c1` (stereo partly drawn) [Compound 61, (2R,6S,16aS,Z)-2-(7-methoxy-2-phenylquinolin-4-yloxy)-5,16-dioxo-6-(pipcridin-1-yl)-1,2,3,5,6,7,8,9,10,11,13a,14,14a, 15,16,16a-hexadecahydrocyclopropa [e]pyrrolo[1,2-a] [1,4]diazacyclopentadecine-14a-carboxylic acid], for which the concentration giving a half-maximal response (EC50) is below 100 µM.

As to `CCOC(=O)[C@]12C[C@@H]1/C=C\CCCCC[C@H](N1CCCCC1)C(=O)N1C[C@H](Oc3cc(-c4ccccc4)nc4cc(OC)ccc34)C[C@H]1C(=O)N2` [Compound 62, (2R,6S,13aR,14aS,16aS,Z)-ethyl 2-(7-methoxy-2-phenylquinolin-4-yloxy)-5,16-dioxo-6-(piperidin-1-yl)-1,2,3,5,6,7,8,9,10,11,13a,14,14a, 15,16,16a-hexadecahydrocyclopropa [e]pyrrolo[1,2-a] [1,4]diazacyclopentadecine-14a-carboxylate], the EC50 is below 100 µM. Consider `CCOC(=O)[C@@]12C[C@H]1/C=C\CCCCC[C@H](N1CCCCC1)C(=O)N1C[C@H](Oc3cc(-c4ccccc4)nc4cc(OC)ccc34)C[C@H]1C(=O)N2` [Compound 63, (2R,6S,13aS,14aR,16aS,Z)-ethyl 2-(7-methoxy-2-phenylquinolin-4-yloxy)-5,16-dioxo-6-(piperidin-1-yl)-1,2,3,5,6,7,8,9,10,11,13a,14,14a, 15,16,16a-hexadecahydrocyclopropa [e]pyrrolo[1,2-a] [1,4]diazacyclopentadecine-14a-carboxylate], for which the 50% effective concentration (EC50) is below 100 µM.

With `C=CC1CC1(NC(=O)[C@@H]1C[C@@H](Oc2cc(-c3ccccc3)nc3cc(OC)ccc23)CN1C(=O)[C@H](C1CCCCC1)N1CCCCC1)C(=O)NS(=O)(=O)C1CC1` (stereo partly drawn) [Compound 64, (2S,4R)-1-((S)-2-cyclohexyl-2-(piperidin-1-yl)acetyl)-N-(1-(cyclopropylsulfonylcarbamoyl)-2-vinylcyclopropyl)-4-(7-methoxy-2-phenylquinolin-4-yloxy)pyrrolidine-2-carboxamide], the EC50 was below 100 µM. Compound `C=C[C@H]1C[C@@]1(NC(=O)[C@@H]1C[C@@H](Oc2cc(-c3ccccc3)nc3cc(OC)ccc23)CN1C(=O)[C@H](c1ccccc1)N1CCCCC1)C(=O)NS(=O)(=O)C1CC1` [Compound 65, (2S,4R)-N-((1S,2R)-1-(cyclopropylsulfonylcarbamoyl)-2-vinylcyclopropyl)-4-(7-methoxy-2-phenylquinolin-4-yloxy)-1-((S)-2-phenyl-2-(piperidin-1-yl)acetyl)pyrrolidine-2-carboxamide] returned an EC50 below 100 µM. `C=C[C@@H]1C[C@]1(NC(=O)[C@@H]1C[C@@H](Oc2cc(-c3ccccc3)nc3cc(OC)ccc23)CN1C(=O)[C@H](c1ccccc1)N1CCCCC1)C(=O)NS(=O)(=O)C1CC1` [Compound 66, (2S,4R)-N-((1R,2S)-1-(cyclopropylsulfonylcarbamoyl)-2-vinylcyclopropyl)-4-(7-methoxy-2-phenylquinolin-4-yloxy)-1-((S)-2-phenyl-2-(piperidin-1-yl)acetyl)pyrrolidine-2-carboxamide] had an EC50 below 100 µM. Take `C=CC1CC1(NC(=O)[C@@H]1C[C@@H](Oc2cc(-c3ccccc3)nc3cc(OC)ccc23)CN1C(=O)[C@H](C)N1CCCCC1)C(=O)NS(=O)(=O)C1CC1` (stereo partly drawn) [Compound 67, (2S,4R)-N-(1-(cyclopropylsulfonylcarbamoyl)-2-vinylcyclopropyl)-4-(7-methoxy-2-phenylquinolin-4-yloxy)-1-((S)-2-(piperidin-1-yl)propanoyl)pyrrolidine-2-carboxamide]: the EC50 was below 100 µM. The result for `C=CC1CC1(NC(=O)[C@@H]1C[C@@H](Oc2cc(-c3ccccc3)nc3cc(OC)ccc23)CN1C(=O)[C@H](C(C)C)N1CCCCC1)C(=O)NS(=O)(=O)C1CC1` (stereo partly drawn) [Compound 68, (2S,4R)-N-(1-(cyclopropylsulfonylcarbamoyl)-2-vinylcyclopropyl)-4-(7-methoxy-2-phenylquinolin-4-yloxy)-1-((S)-3-methyl-2-(piperidin-1-yl)butanoyl)pyrrolidine-2-carboxamide] reads below 100 µM; that for `C=CC1CC1(NC(=O)[C@@H]1C[C@@H](Oc2cc(-c3ccccc3)nc3cc(OC)ccc23)CN1C(=O)[C@H](CC(C)C)N1CCCCC1)C(=O)NS(=O)(=O)C1CC1` (stereo partly drawn) [Compound 69, (2S,4R)-N-(1-(cyclopropylsulfonylcarbamoyl)-2-vinylcyclopropyl)-4-(7-methoxy-2-phenylquinolin-4-yloxy)-1-((S)-4-methyl-2-(piperidin-1-yl)pentanoyl)pyrrolidine-2-carboxamide], below 100 µM.
